Test results published in patent US9695155B2, “Herbicidal substituted pyrimidinyloxy benzene compounds” (E. I. DU PONT DE NEMOURS AND COMPANY, priority 2013, dated 2017).

Experiments:
[1] = system: sedge, umbrella; experiment: Test C flooded paddy test; assay type: in vivo, Cyperus difformis; conditions: Flood, scale 0 to 100 (0 no effect, 100 complete control), 13 to 15 days
Outline: (§1)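 Greenhouse pots flooded to 3 cm above soil at time of treatment received compound via the water, which stayed at that level.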

[2] = system: barnyardgrass; experiment: Test C flooded paddy test; assay type: in vivo, Echinochloa crus-galli; conditions: Flood, scale 0 to 100 (0 no effect, 100 complete control), 13 to 15 days
Outline: as §1

[3] = system: fall panicum; experiment: Test E postemergence; assay type: in vivo, Panicum dichotomiflorum; conditions: Panicum dichotomiflorum, post-emergence, read-out: Plant response rating, Panicum, Fall
Excerpt: (§2) Seeds of plant species selected from corn (Zea mays), soybean (Glycine max), velvetleaf (Abutilon theophrasti), lambsquarters (Chenopodium album), wild poinsettia (Euphorbia heterophylla), palmer pigweed (Amaranthus palmeri), waterhemp (common waterhemp, Amaranthus rudis), surinam grass (Brachiaria decumbens), large (Lg) crabgrass (Digitaria sanguinalis), Brazilian crabgrass (Digitaria horizontalis), fall panicum (Panicum dichotomiflorum), giant foxtail (Setaria faberii), green foxtail (Setaria viridis), goosegrass (Eleusine indica), johnsongrass (Sorghum halepense), ragweed (common ragweed, Ambrosia elatior), barnyardgrass (Echinochloa crus-galli), sandbur (southern sandbur, Cenchrus echinatus), arrowleaf sida (Sida rhombifolia), Italian ryegrass (Lolium multiflorum), dayflower (Virginia (VA) dayflower, Commelina virginica), field bindweed (Convolvulus arvensis), morningglory (Ipomoea coccinea), nightshade (eastern black nightshade, Solanum ptycanthum), kochia (Kochia scoparia), yellow nutsedge (Cyperus esculentus), cocklebur (common cocklebur, Xanthium strumarium), smartweed (ladysthumb smartweed, and hairy beggarticks (Bidens pilosa), were planted into a silt loam soil and treated preemergence with test chemicals formulated in a non-phytotoxic solvent mixture which included a surfactant.
(§3) At the same time, plants from these crop and weed species and also horseweed (Canada horseweed, Conyza canadensis), waterhemp_RES1, (ALS & Triazine resistant common waterhemp, Amaranthus rudis), and waterhemp_RES2, (ALS & HPPD resistant common waterhemp, Amaranthus rudis) were planted in pots containing Redi-Earth® planting medium (Scotts Company, 14111 Scottslawn Road, Marysville, Ohio 43041) comprising spaghnum peat moss, vermiculite, wetting agent and starter nutrients were treated with postemergence applications of test chemicals formulated in the same manner. Plants ranged in height from 2 to 18 cm for postemergence treatments (1- to 4-leaf stage). Treated plants and controls were maintained in a greenhouse for 14 to 21 days, after which time all species were compared to controls and visually evaluated. Plant response ratings, summarized in Table E, are based on a scale of 0 to 100 where 0 is no effect and 100 is complete control. A dash (-) response means no test result.

[4] = system: hairy beggarticks; experiment: Test E postemergence; assay type: in vivo, Bidens pilosa; conditions: Bidens pilosa, post-emergence, read-out: Plant response rating, Beggarticks
Excerpt: as §2, §3

[5] = system: dayflower; experiment: Test E postemergence; assay type: in vivo, Commelina virginica; conditions: Commelina virginica, post-emergence, read-out: Plant response rating, Dayflower, VA
Excerpt: as §2, §3

[6] = system: Italian ryegrass; experiment: Test E postemergence; assay type: in vivo, Lolium multiflorum; conditions: Lolium multiflorum, post-emergence, read-out: Plant response rating, Ryegrass, Italian
Excerpt: as §2, §3

[7] = system: waterhemp; experiment: Test E postemergence; assay type: in vivo, Amaranthus rudis; conditions: Amaranthus tuberculatus, post-emergence, read-out: Plant response rating, Waterhemp
Excerpt: as §2, §3

[8] = system: waterhemp_RES2 (ALS & HPPD resistant common waterhemp); experiment: Test E postemergence; assay type: in vivo, Amaranthus rudis; conditions: Amaranthus tuberculatus, post-emergence, read-out: Plant response rating, Waterhemp_RES2
Excerpt: as §2, §3

[9] = Postemergence, 62 g ai/ha, scale 0 to 100
[10] = Postemergence, 125 g ai/ha, scale 0 to 100
[11] = Postemergence, 250 g ai/ha, scale 0 to 100
[12] = postemergence, 16 g ai/ha, scale 0 to 100, 0 no effect, 100 complete control
[13] = Postemergence, 31 g ai/ha, scale 0 to 100

With N#Cc1cccc(Oc2ncc(Cl)cn2)c1-n1cc(OC(F)F)cn1 [Compound 97] the “Plant response rating, Sedge, Umbrella” value ([1]; 31 g ai/ha) was 60, the “Plant response rating, Sedge, Umbrella” value ([1]; 62 g ai/ha) was 60 and the “Plant response rating, Sedge, Umbrella” value ([1]; 125 g ai/ha) was 75. The “Plant response rating, Sedge, Umbrella” value ([1]; 250 g ai/ha) was 80, the “Plant response rating, Barnyardgrass” value ([2]; 31 g ai/ha) was 0 and the “Plant response rating, Barnyardgrass” value ([2]; 62 g ai/ha) was 0. For the same compound, the “Plant response rating, Barnyardgrass” value ([2]; 125 g ai/ha) was 0 and the “Plant response rating, Barnyardgrass” value ([2]; 250 g ai/ha) was 0.
FC(F)c1cnn(-c2ccccc2Oc2ncc(Cl)cn2)c1 [Compound 80, 5-chloro-2-[2-[4-(difluoromethyl)-1H-pyrazol-1-yl]phenoxy]pyrimidine] was tested, and the “Plant response rating, Sedge, Umbrella” value ([1]; 250 g ai/ha) was 0, the “Plant response rating, Sedge, Umbrella” value ([1]; 500 g ai/ha) was 0 and the “Plant response rating, Sedge, Umbrella” value ([1]; 1000 g ai/ha) was 60. The “Plant response rating, Sedge, Umbrella” value ([1]; 2000 g ai/ha) was 85, the “Plant response rating, Barnyardgrass” value ([2]; 250 g ai/ha) was 0 and the “Plant response rating, Barnyardgrass” value ([2]; 500 g ai/ha) was 0. The “Plant response rating, Barnyardgrass” value ([2]; 1000 g ai/ha) was 0 and the “Plant response rating, Barnyardgrass” value ([2]; 2000 g ai/ha) was 0.
FC(F)c1cnn(-c2c(Cl)cccc2Oc2ncc(Cl)cn2)c1 [Compound 192] was tested, and the “Plant response rating, Sedge, Umbrella” value ([1]; 31 g ai/ha) was 0, the “Plant response rating, Sedge, Umbrella” value ([1]; 62 g ai/ha) was 0 and the “Plant response rating, Sedge, Umbrella” value ([1]; 125 g ai/ha) was 50. For the same compound, the “Plant response rating, Sedge, Umbrella” value ([1]; 250 g ai/ha) was 85, the “Plant response rating, Barnyardgrass” value ([2]; 31 g ai/ha) was 0 and the “Plant response rating, Barnyardgrass” value ([2]; 62 g ai/ha) was 0. For the same compound, the “Plant response rating, Barnyardgrass” value ([2]; 125 g ai/ha) was 0 and the “Plant response rating, Barnyardgrass” value ([2]; 250 g ai/ha) was 0.
With Fc1cccc(Oc2ncc(Cl)cn2)c1-n1cc(C(F)F)nn1 [Compound 141, 5-chloro-2-[2-[4-(difluoromethyl)-1H-1,2,3-triazol-1-yl]-3-fluorophenoxy]pyrimidine] the “Plant response rating, Sedge, Umbrella” value ([1]; 31 g ai/ha) was 0, the “Plant response rating, Sedge, Umbrella” value ([1]; 62 g ai/ha) was 40 and the “Plant response rating, Sedge, Umbrella” value ([1]; 125 g ai/ha) was 75. For the same compound, the “Plant response rating, Sedge, Umbrella” value ([1]; 250 g ai/ha) was 100, the “Plant response rating, Barnyardgrass” value ([2]; 31 g ai/ha) was 0 and the “Plant response rating, Barnyardgrass” value ([2]; 62 g ai/ha) was 0. For the same compound, the “Plant response rating, Barnyardgrass” value ([2]; 125 g ai/ha) was 15 and the “Plant response rating, Barnyardgrass” value ([2]; 250 g ai/ha) was 20.
Clc1cnn(-c2ccccc2Oc2ncc(Br)cn2)c1 [Compound 5, 5-bromo-2-[2-(4-chloro-1H-pyrazol-1-yl)phenoxy]pyrimidine] gave a pest or weed control at 62 g/ha [3, 9] of 0%, a pest or weed control at 125 g/ha [3, 10] of 0% and a pest or weed control at 250 g/ha [3, 11] of 0%. For the same compound, the pest or weed control at 16 g/ha [3, 12] was 0%, the pest or weed control at 31 g/ha [4, 13] was 40% and the pest or weed control at 62 g/ha [4, 9] was 60%. For the same compound, the pest or weed control at 125 g/ha [4, 10] was 60%, the pest or weed control at 250 g/ha [4, 11] was 70% and the pest or weed control at 16 g/ha [4, 12] was 30%. The pest or weed control at 31 g/ha [5, 13] was 10%, the pest or weed control at 62 g/ha [5, 9] was 10% and the pest or weed control at 125 g/ha [5, 10] was 40%. For the same compound, the pest or weed control at 250 g/ha [5, 11] was 75%, the pest or weed control at 16 g/ha [5, 12] was 0% and the pest or weed control at 31 g/ha [6, 13] was 0%. For the same compound, the pest or weed control at 62 g/ha [6, 9] was 0%, the pest or weed control at 125 g/ha [6, 10] was 0% and the pest or weed control at 250 g/ha [6, 11] was 0%. The pest or weed control at 16 g/ha [6, 12] was 0%, the pest or weed control at 31 g/ha [7, 13] was 80% and the pest or weed control at 62 g/ha [7, 9] was 90%. The pest or weed control at 125 g/ha [7, 10] was 95%, the pest or weed control at 250 g/ha [7, 11] was 98% and the pest or weed control at 16 g/ha [7, 12] was 70%. For the same compound, the pest or weed control at 31 g/ha [8, 13] was 70%, the pest or weed control at 62 g/ha [8, 9] was 80% and the pest or weed control at 125 g/ha [8, 10] was 90%. It also gave a pest or weed control at 250 g/ha [8, 11] of 95% and a pest or weed control at 16 g/ha [8, 12] of 60%.
For Fc1cccc(Oc2ncc(Cl)cn2)c1-n1cc(Cl)cn1 [Compound 177], the “Plant response rating, Sedge, Umbrella” value ([1]; 31 g ai/ha) was 0, the “Plant response rating, Sedge, Umbrella” value ([1]; 62 g ai/ha) was 0 and the “Plant response rating, Sedge, Umbrella” value ([1]; 125 g ai/ha) was 60. For the same compound, the “Plant response rating, Sedge, Umbrella” value ([1]; 250 g ai/ha) was 85, the “Plant response rating, Barnyardgrass” value ([2]; 31 g ai/ha) was 0 and the “Plant response rating, Barnyardgrass” value ([2]; 62 g ai/ha) was 0. The “Plant response rating, Barnyardgrass” value ([2]; 125 g ai/ha) was 0 and the “Plant response rating, Barnyardgrass” value ([2]; 250 g ai/ha) was 0.
